Laboratory results from patent publication US12527325B2, “Pesticidally active diazine-amide compounds” (SYNGENTA CROP PROTECTION AG, priority 2019, dated 2026).

How the values were obtained:
Type in all cases: in vivo
Plutella xylostella [1] = assay: Example B5: Plutella xylostella (Diamond Back Moth); conditions: 192 h, application rate of 200 ppm, 24-well artificial diet, eggs, 8 days after infestation, read-out: control in at least one of the two categories (mortality or growth inhibition)
Experimental: Example B5: Plutella xylostella (Diamond Back Moth)
24-well microtiter plates with artificial diet were treated with aqueous test solutions prepared from 10′000 ppm DMSO stock solutions by pipetting. After drying, Plutella eggs were pipetted through a plastic stencil onto a gel blotting paper and the plate was closed with it. The samples were assessed for mortality and growth inhibition in comparison to untreated samples 8 days after infestation.

Spodoptera littoralis = assay: Example B9: Spodoptera littoralis (Egyptian Cotton Leaf Worm), cotton leaf disc spray; conditions: foliar, 72 h, application rate of 200 ppm, sprayed cotton leaf discs, L1 larvae, 3 days after infestation, read-out: control in at least one of the three categories (mortality, anti-feedant or growth inhibition)
Chilo suppressalis = assay: Example B4: Chilo suppressalis (Striped Rice Stemborer); conditions: 144 h, application rate of 200 ppm, artificial diet, L2 larvae, 6 days after infestation, read-out: control in at least one of the three categories (mortality, anti-feedant or growth inhibition)
Experimental: Example B4: Chilo suppressalis (Striped Rice Stemborer)
24-well microtiter plates with artificial diet were treated with aqueous test solutions prepared from 10′000 ppm DMSO stock solutions by pipetting. After drying, the plates were infested with L2 larvae (6-8 per well). The samples were assessed for mortality, anti-feeding effect, and growth inhibition in comparison to untreated samples 6 days after infestation. Control of Chilo suppressalis by a test sample is given when at least one of the categories mortality, anti-feedant effect, and growth inhibition is higher than the untreated sample.

Diabrotica balteata = assay: Example B1: Diabrotica balteata (Corn Root Worm); conditions: 96 h, application rate of 200 ppm, sprayed maize sprouts, L2 larvae, 4 days after infestation, read-out: control in at least one of the two categories (mortality or growth inhibition)
Experimental: Example B1: Diabrotica balteata (Corn Root Worm)
Maize sprouts placed onto an agar layer in 24-well microtiter plates were treated with aqueous test solutions prepared from 10′000 ppm DMSO stock solutions by spraying. After drying, the plates were infested with L2 larvae (6 to 10 per well). The samples were assessed for mortality and growth inhibition in comparison to untreated samples 4 days after infestation.

Plutella xylostella [2] = assay: Example B12: Plutella xylostella (Diamondback Moth), 96-well artificial diet; conditions: 216 h, application rate of 500 ppm, eggs, 9 days after infestation
Experimental: Example B12: Plutella xylostella (Diamondback Moth)
96-well microtiter plates containing artificial diet were treated with aqueous test solutions, prepared from 10′000 ppm DMSO stock solutions, by a liquid handling robot. After drying, eggs (˜30 per well) were infested onto a netted lid which was suspended above the diet. The eggs hatch and L1 larvae move down to the diet. The samples were assessed for mortality 9 days after infestation.

## CC(NC(=O)c1cc(C(F)(F)F)cc(C(F)(F)C2CC2)c1)c1nccnc1-c1ccc(Cl)cn1 (stereo not shown) [P4, N-[1-[3-(5-chloro-2-pyridyl)pyrazin-2-yl]ethyl]-3-[cyclopropyl(difluoro)methyl]-5-(trifluoromethyl) benzamide]
Plutella xylostella [1]
  percent control (mortality or growth inhibition) at 200 ppm: ≥ 80%
Spodoptera littoralis
  percent control (mortality, anti-feedant effect or growth inhibition) at 200 ppm: ≥ 80%
Chilo suppressalis
  percent control (mortality, anti-feedant effect or growth inhibition) at 200 ppm: ≥ 80%

## CC(NC(=O)c1cc(C(F)(F)F)cc(C(C)(C)C#N)c1)c1nccnc1-c1ccc(F)cn1 (stereo not shown) [P5, 3-(1-cyano-1-methyl-ethyl)-N-[1-[3-(5-fluoro-2-pyridyl)pyrazin-2-yl]ethyl]-5-(trifluoromethyl) benzamide]
Plutella xylostella [1]
  percent control (mortality or growth inhibition) at 200 ppm: ≥ 80%

## CC(NC(=O)c1cc(C(F)(F)F)cc(C(C)(C)C#N)c1)c1nccnc1-c1ncc(C2CC2)cn1 (stereo not shown) [P6, 3-(1-cyano-1-methyl-ethyl)-N-[1-[3-(5-cyclopropylpyrimidin-2-yl)pyrazin-2-yl]ethyl]-5-(trifluoromethyl) benzamide]
Plutella xylostella [1]
  percent control (mortality or growth inhibition) at 200 ppm: ≥ 80%
Spodoptera littoralis
  percent control (mortality, anti-feedant effect or growth inhibition) at 200 ppm: ≥ 80%
Diabrotica balteata
  percent control (mortality or growth inhibition) at 200 ppm: ≥ 80%
Chilo suppressalis
  percent control (mortality, anti-feedant effect or growth inhibition) at 200 ppm: ≥ 80%

## CC(NC(=O)c1cc(C(F)(F)F)cc(C(C)(C)C#N)c1)c1nccnc1-c1ccccn1 (stereo not shown) [P7, 3-(1-cyano-1-methyl-ethyl)-N-[1-[3-(2-pyridyl)pyrazin-2-yl]ethyl]-5-(trifluoromethyl) benzamide]
Plutella xylostella [1]
  percent control (mortality or growth inhibition) at 200 ppm: ≥ 80%
Spodoptera littoralis
  percent control (mortality, anti-feedant effect or growth inhibition) at 200 ppm: ≥ 80%
Diabrotica balteata
  percent control (mortality or growth inhibition) at 200 ppm: ≥ 80%
Chilo suppressalis
  percent control (mortality, anti-feedant effect or growth inhibition) at 200 ppm: ≥ 80%

## CC(NC(=O)c1cc(C(F)(F)F)cc(C(C)(C)C#N)c1)c1nccnc1-c1ccc(Cl)cn1 (stereo not shown) [P8, N-[1-[3-(5-chloro-2-pyridyl)pyrazin-2-yl]ethyl]-3-(1-cyano-1-methyl-ethyl)-5-(trifluoromethyl) benzamide]
Plutella xylostella [1]
  percent control (mortality or growth inhibition) at 200 ppm: ≥ 80%
Spodoptera littoralis
  percent control (mortality, anti-feedant effect or growth inhibition) at 200 ppm: ≥ 80%
Diabrotica balteata
  percent control (mortality or growth inhibition) at 200 ppm: ≥ 80%
Chilo suppressalis
  percent control (mortality, anti-feedant effect or growth inhibition) at 200 ppm: ≥ 80%

## CC(NC(=O)c1cc(C(F)(F)F)cc(C(C)(C)C#N)c1)c1nccnc1-c1ccc(Br)cn1 (stereo not shown) [P9, N-[1-[3-(5-bromo-2-pyridyl)pyrazin-2-yl]ethyl]-3-(1-cyano-1-methyl-ethyl)-5-(trifluoromethyl) benzamide]
Plutella xylostella [1]
  percent control (mortality or growth inhibition) at 200 ppm: ≥ 80%
Spodoptera littoralis
  percent control (mortality, anti-feedant effect or growth inhibition) at 200 ppm: ≥ 80%
Diabrotica balteata
  percent control (mortality or growth inhibition) at 200 ppm: ≥ 80%
Chilo suppressalis
  percent control (mortality, anti-feedant effect or growth inhibition) at 200 ppm: ≥ 80%

## CC(NC(=O)c1cc(C(F)(F)F)cc(S(=O)(=O)C(F)(F)F)c1)c1nccnc1-c1ccc(F)cn1 (stereo not shown) [P12, N-[1-[3-(5-fluoro-2-pyridyl)pyrazin-2-yl]ethyl]-3-(trifluoromethyl)-5-(trifluoromethylsulfonyl) benzamide]
Plutella xylostella [2]
  mortality at 500 ppm: ≥ 80%
Chilo suppressalis
  percent control (mortality, anti-feedant effect or growth inhibition) at 200 ppm: ≥ 80%

## CC(NC(=O)c1cc(C(F)(F)F)cc(S(=O)(=O)C(F)(F)F)c1)c1nccnc1-c1ccc(Br)cn1 (stereo not shown) [P14, N-[1-[3-(5-bromo-2-pyridyl)pyrazin-2-yl]ethyl]-3-(trifluoromethyl)-5-(trifluoromethylsulfonyl) benzamide]
Plutella xylostella [2]
  mortality at 500 ppm: ≥ 80%

## CC(NC(=O)c1cc(C(F)(F)F)cc(S(=O)(=O)C(F)(F)F)c1)c1nccnc1-c1ccc(Cl)cn1 (stereo not shown) [P15, N-[1-[3-(5-chloro-2-pyridyl)pyrazin-2-yl]ethyl]-3-(trifluoromethyl)-5-(trifluoromethylsulfonyl) benzamide]
Plutella xylostella [2]
  mortality at 500 ppm: ≥ 80%

## CC(NC(=O)c1cc(C2CC2)cc(C(F)(F)F)c1)c1nccnc1-c1ccc(Br)cn1 (stereo not shown) [P29, N-[1-[3-(5-bromo-2-pyridyl)pyrazin-2-yl]ethyl]-3-cyclopropyl-5-(trifluoromethyl)benzamide]
Plutella xylostella [1]
  percent control (mortality or growth inhibition) at 200 ppm: ≥ 80%
Plutella xylostella [2]
  mortality at 500 ppm: ≥ 80%

## CC(NC(=O)c1cc(C(F)(F)F)cc(C(F)(F)C2CC2)c1)c1nccnc1-c1ccc(F)cn1 (stereo not shown) [P38, 3-[cyclopropyl (difluoro)methyl]-N-[1-[3-(5-fluoro-2-pyridyl)pyrazin-2-yl]ethyl]-5-(trifluoromethyl)benzamide]
Plutella xylostella [1]
  percent control (mortality or growth inhibition) at 200 ppm: ≥ 80%
Plutella xylostella [2]
  mortality at 500 ppm: ≥ 80%

## CC(NC(=O)c1cc(OCC2CC2)nc(C(F)(F)F)c1)c1nccnc1-c1ncccn1 (stereo not shown) [P43, 2-(cyclopropylmethoxy)-N-[1-(3-pyrimidin-2-ylpyrazin-2-yl)ethyl]-6-(trifluoromethyl)pyridine-4-carboxamide]
Plutella xylostella [1]
  percent control (mortality or growth inhibition) at 200 ppm: ≥ 80%
Chilo suppressalis
  percent control (mortality, anti-feedant effect or growth inhibition) at 200 ppm: ≥ 80%

## COC1(c2cc(C(=O)NC(C)c3nccnc3-c3ncccn3)cc(C(F)(F)F)c2)CC1 (stereo not shown) [P47, 3-(1-methoxycyclopropyl)-N-[1-(3-pyrimidin-2-ylpyrazin-2-yl)ethyl]-5-(trifluoromethyl)benzamide]
Plutella xylostella [1]
  percent control (mortality or growth inhibition) at 200 ppm: ≥ 80%
Chilo suppressalis
  percent control (mortality, anti-feedant effect or growth inhibition) at 200 ppm: ≥ 80%

## CC(NC(=O)c1cc(C(F)(F)F)cc(C(C)(C)C#N)c1)c1nccnc1-c1ncc(Br)cn1 (stereo not shown) [P49, N-[1-[3-(5-bromopyrimidin-2-yl)pyrazin-2-yl]ethyl]-3-(1-cyano-1-methyl-ethyl)-5-(trifluoromethyl)benzamide]
Plutella xylostella [1]
  percent control (mortality or growth inhibition) at 200 ppm: ≥ 80%
Spodoptera littoralis
  percent control (mortality, anti-feedant effect or growth inhibition) at 200 ppm: ≥ 80%
Diabrotica balteata
  percent control (mortality or growth inhibition) at 200 ppm: ≥ 80%
Chilo suppressalis
  percent control (mortality, anti-feedant effect or growth inhibition) at 200 ppm: ≥ 80%

## Cc1cnc(-c2nccnc2C(C)NC(=O)c2cc(C3CC3)cc(C(F)(F)F)c2)nc1 (stereo not shown) [P51, 3-cyclopropyl-N-[1-[3-(5-methylpyrimidin-2-yl)pyrazin-2-yl]ethyl]-5-(trifluoromethyl)benzamide]
Plutella xylostella [1]
  percent control (mortality or growth inhibition) at 200 ppm: ≥ 80%
Spodoptera littoralis
  percent control (mortality, anti-feedant effect or growth inhibition) at 200 ppm: ≥ 80%

## Cc1cnc(-c2nccnc2C(C)NC(=O)c2cc(C(F)(F)F)cc(C(F)(F)C3CC3)c2)nc1 (stereo not shown) [P52, 3-[cyclopropyl (difluoro)methyl]-N-[1-[3-(5-methylpyrimidin-2-yl)pyrazin-2-yl]ethyl]-5-(trifluoromethyl)benzamide]
Plutella xylostella [1]
  percent control (mortality or growth inhibition) at 200 ppm: ≥ 80%
Spodoptera littoralis
  percent control (mortality, anti-feedant effect or growth inhibition) at 200 ppm: ≥ 80%

## CC(NC(=O)c1cc(C(F)(F)F)cc(C(F)(F)C2CC2)c1)c1nccnc1-c1ncc(Br)cn1 (stereo not shown) [P53, N-[1-[3-(5-bromopyrimidin-2-yl)pyrazin-2-yl]ethyl]-3-[cyclopropyl(difluoro)methyl]-5-(trifluoromethyl)benzamide]
Plutella xylostella [1]
  percent control (mortality or growth inhibition) at 200 ppm: ≥ 80%
Spodoptera littoralis
  percent control (mortality, anti-feedant effect or growth inhibition) at 200 ppm: ≥ 80%
Diabrotica balteata
  percent control (mortality or growth inhibition) at 200 ppm: ≥ 80%
Chilo suppressalis
  percent control (mortality, anti-feedant effect or growth inhibition) at 200 ppm: ≥ 80%

## Cc1cnc(-c2nccnc2C(C)NC(=O)c2cc(C(F)(F)F)cc(C3(C#N)CC3)c2)nc1 (stereo not shown) [P54, 3-(1-cyanocyclopropyl)-N-[1-[3-(5-methylpyrimidin-2-yl)pyrazin-2-yl]ethyl]-5-(trifluoromethyl)benzamide]
Plutella xylostella [1]
  percent control (mortality or growth inhibition) at 200 ppm: ≥ 80%
Spodoptera littoralis
  percent control (mortality, anti-feedant effect or growth inhibition) at 200 ppm: ≥ 80%
Chilo suppressalis
  percent control (mortality, anti-feedant effect or growth inhibition) at 200 ppm: ≥ 80%

## Cc1cnc(-c2nccnc2C(C)NC(=O)c2cc(C(F)(F)F)cc(S(=O)(=O)C(F)(F)F)c2)nc1 (stereo not shown) [P56, N-[1-[3-(5-methylpyrimidin-2-yl)pyrazin-2-yl]ethyl]-3-(trifluoromethyl)-5-(trifluoromethylsulfonyl) benzamide]
Plutella xylostella [1]
  percent control (mortality or growth inhibition) at 200 ppm: ≥ 80%
Spodoptera littoralis
  percent control (mortality, anti-feedant effect or growth inhibition) at 200 ppm: ≥ 80%
Chilo suppressalis
  percent control (mortality, anti-feedant effect or growth inhibition) at 200 ppm: ≥ 80%

## CC(NC(=O)c1cc(C(F)(F)F)cc(S(=O)(=O)C(F)(F)F)c1)c1nccnc1-c1ncc(Br)cn1 (stereo not shown) [P57, N-[1-[3-(5-bromopyrimidin-2-yl)pyrazin-2-yl]ethyl]-3-(trifluoromethyl)-5-(trifluoromethylsulfonyl) benzamide]
Plutella xylostella [1]
  percent control (mortality or growth inhibition) at 200 ppm: ≥ 80%
Spodoptera littoralis
  percent control (mortality, anti-feedant effect or growth inhibition) at 200 ppm: ≥ 80%
Diabrotica balteata
  percent control (mortality or growth inhibition) at 200 ppm: ≥ 80%
Chilo suppressalis
  percent control (mortality, anti-feedant effect or growth inhibition) at 200 ppm: ≥ 80%

## CC(NC(=O)c1cc(C2CC2)cc(C(F)(F)F)c1)c1nccnc1-c1ncc(Br)cn1 (stereo not shown) [P58, N-[1-[3-(5-bromopyrimidin-2-yl)pyrazin-2-yl]ethyl]-3-cyclopropyl-5-(trifluoromethyl) benzamide]
Plutella xylostella [1]
  percent control (mortality or growth inhibition) at 200 ppm: ≥ 80%
Spodoptera littoralis
  percent control (mortality, anti-feedant effect or growth inhibition) at 200 ppm: ≥ 80%
Diabrotica balteata
  percent control (mortality or growth inhibition) at 200 ppm: ≥ 80%
Chilo suppressalis
  percent control (mortality, anti-feedant effect or growth inhibition) at 200 ppm: ≥ 80%
